Experimental data reported in patent US10220033B2, “Substituted benzoxazepine for cancer therapy” (University of Cape Town, priority 2014, dated 2019).

Tests used:
[1] = test system: p65/NFκB transcriptional activity in CaSki cells; experiment: p65 luciferase reporter assay; type: cell-based; conditions: 10 or 15 μM, 24 hours (FIG. 15)
Protocol: (§1) To assay for AP-1 and p65 luciferase activities, 40 000 CaSki cells were plated in 24-well plates, and transfected with 50 ng of an API luciferase reporter (containing four copies of the AP-1 binding site) or 50 ng of a p65 luciferase reporter (containing five copies of the p65 binding site, Clontech, CA, USA) and 5 ng pRL-TK (encoding Renilla luciferase, Promega), using 0.16 μl TransFectin™ lipid reagent (Bio-Rad, Hercules, Calif., USA). The following day cells were treated with 10 or 15 μM Compound A. Luciferase activity was measured 24 hours after Compound A treatment using the Dual-LuciferaseR Reporter assay system (Promega, Madison, Wis., USA), according to the manufacturers' instructions. Luciferase readings were measured using the Veritas™ microplate luminometer (Promega) and luciferase readings were normalised to Renilla luciferase in the same extract.

HeLa and KYSE30 cells = experiment: Anchorage-independent colony formation; type: cell-based; conditions: 10 μM; polyheme-coated plates, 9 days (FIG. 23)
Protocol: The anchorage-independent proliferation of cancer cells was measured in response to Compound A treatment, as cells grown in this manner are more representative of tumour cells in vivo. Cells were grown on polyheme-coated plates and cell proliferation monitored 9 days after treatment, using MTT assays.

[2] = test system: AP-1 transcriptional activity in CaSki cells; experiment: AP-1 luciferase reporter assay; type: cell-based; conditions: 10 or 15 μM, 24 hours (FIG. 15)
Protocol: as §1

CaSki cells = experiment: Cell cycle analysis; type: cell-based; conditions: 24 hours (FIGS. 24 and 25)
Protocol: CaSki cells were plated in 60 mm dishes and treated with the appropriate concentration of Compound A. Cells were harvested 24 hours after treatment, and fixed in 100% ethanol, after which they were stained with Propidium Iodide and the cell cycle profiles analysed using a BD flow cytometer (BD Biosciences, NJ, USA). Data analysis was performed using ModFit 3.3 software.

[3] = Body mass of tumour-bearing mice during treatment; type: in vivo; conditions: WHCO6 tumour-bearing mice; 50 mg/kg i.p. over the course of the treatment (FIG. 29)
Protocol: WHCO6 cells were harvested and resuspended in PBS. For tumour inoculation, cancer cells (5×10^6 per mouse) were s.c. implanted into the hind flanks of female nude mice. Once tumours had reached a palpable size, drug treatment was initiated, where tumour-bearing mice were randomized and dosed i.p. with either vehicle (DMSO) or Compound A (50 mg/kg), every 2-3 days for 3 weeks. Tumour volumes were measured twice a week, using calipers, and tumour volume estimated using the following formula: volume=(length×width×width)/2. Mice were sacrificed 3 weeks after the commencement of drug treatment.

Cytochrome C release = experiment: Mitochondrial and cytoplasmic protein extraction, Cytochrome C Western Blot; type: cell-based; conditions: varying concentrations, 24 hours (FIG. 27)
Protocol: Cells were grown in 10 cm plates and treated with varying concentrations of Compound A for 24 hours. Cells were lysed in subcellular fractionation buffer (250 mM sucrose, 20 mM HEPES, 10 mM KCl, 1.5 mM MgCl2, 1 mM EDTA, 1 mM EGTA, 1 mM DTT and 1× complete protease inhibitor cocktail (Roche)), passed through a 25G needle and incubated on ice for 20 minutes. The nuclear pellet was obtained after centrifugation at 720 g for 5 minutes. The supernantant was further centrifuged at 10,000 g and the resulting supernatant used as the cytoplasmic fraction. The pellet containing the mitochondrial fraction was washed in subcellular fractionation buffer and passed through a 25G needle. The mitochondrial fraction was pelleted at 10,000 g and resuspended in RIPA buffer. Western Blot analysis was performed using a mouse anti-Cytochrome C antibody (BD Pharmingen, San Diego, Calif.), and anti-β-tubulin (H235) (sc-9104, Santa Cruz) and anti-Pereroxiredoxin-3 (PRDX-3) (P1247, Sigma) antibodies were used as protein loading controls for cytoplasmic and mitochondrial fractions, respectively.

[4] = test system: WHCO1 oesophageal carcinoma cell line; experiment: MTT assay for cell viability, IC50 determination; type: cell-based; conditions: Homo sapiens, 48 hours
Procedure, shortened: (§2)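 Viability measured by MTT reduction: cells treated 48 h with varying compound doses, MTT added, crystals solubilised 4 h later, A595 read the following day.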

[5] = test system: MDA-MB-231 breast cancer cell line; experiment: MTT assay for cell viability, IC50 determination; type: cell-based; conditions: Homo sapiens, 48 hours, MTT
Procedure, shortened: as §2

[6] = test system: KYSE30 oesophageal cancer cell line; experiment: MTT assay for cell viability, IC50 determination; type: cell-based; conditions: Homo sapiens, KYSE-30, 48 hours
Procedure, shortened: as §2

[7] = MTT assay for cell viability, IC50 determination; type: cell-based; conditions: Homo sapiens, MCF-12A; MCF12A; 48 hours, MTT
Procedure, shortened: as §2

[8] = test system: WHCO6 oesophageal carcinoma cell line; experiment: MTT assay for cell viability, IC50 determination; type: cell-based; conditions: Homo sapiens, 48 hours
Procedure, shortened: as §2

[9] = test system: SVWI38 transformed cell line; experiment: MTT assay for cell viability, IC50 determination; type: cell-based; conditions: SVWI38 transformed; 48 hours, MTT
Procedure, shortened: as §2

[10] = test system: OVCAR3 ovarian cancer cell line; experiment: MTT assay for cell viability, IC50 determination; type: cell-based; conditions: Homo sapiens, OVCAR-3, 48 hours
Procedure, shortened: as §2

[11] = test system: WI38 non-cancer cell line; experiment: MTT assay for cell viability, IC50 determination; type: cell-based; conditions: Homo sapiens, WI-38; WI38 non-cancer; 48 hours, MTT
Procedure, shortened: as §2

[12] = test system: MCF7 breast cancer cell line; experiment: MTT assay for cell viability, IC50 determination; type: cell-based; conditions: Homo sapiens, 48 hours, MTT
Procedure, shortened: as §2

[13] = test system: KYSE150 oesophageal cancer cell line; experiment: MTT assay for cell viability, IC50 determination; type: cell-based; conditions: Homo sapiens, KYSE-150; KYSE150; 48 hours, MTT
Procedure, shortened: as §2

cancer cell lines = experiment: MTT cell viability, summary statements over panels of cancer cell lines; type: cell-based; conditions: cervical, oesophageal, ovarian and breast cancer cell lines (Table 11); read-out: IC50
Protocol: (§3) Cells were plated in 96-well plates and treated with varying concentrations of a test compound for 48 hours, after which MTT dye, 3-(4,5-dimethylthiazol-2-yl)-2,5-diphenyltetrazolium bromide (Sigma), was added, and crystals solubilised 4 hours later using Solubilisation Reagent (10% SLS in 0.01 M HCl). Absorbencies were measured at 595 nm the following day using a BioTek microplate spectrophotometer (Winooski, Vt., USA) and IC50 curves were generated using GraphPad Prism.

[14] = test system: p65 nuclear import (Kpnβ1 cargo protein); experiment: Percentage of nuclear and cytoplasmic p65 (FIG. 4); type: cell-based
[15] = test system: WHCO5 oesophageal cancer cell line; experiment: MTT assay for cell viability, IC50 determination; type: cell-based, human; conditions: MTT
Protocol: as §3

body mass of the mice [3]: did not change
IC50 [4]: 10.6 µM
IC50 [5]: 7.92 µM
IC50 [6]: 8.84 µM
IC50 [8]: 12 µM
IC50 [10]: 10.5 µM
IC50 [12]: 9.33 µM
IC50 [13]: 11.7 µM
IC50 (cancer cell lines): ~10 µM
IC50 ([15]; 48 hours): 9.09 µM
IC50 ([15]; Homo sapiens, 48 h): 9.09 µM
Structure (SMILES): CN(C)CCCn1c(N)c(-c2nc3ccccc3[nH]2)c2nc3ccccc3nc21 [Compound A, 3-(1H-benzimidazol-2-yl)-1-(3-dimethylaminopropyl)pyrrolo[5,4-b]quinoxalin-2-amine]
p65 luciferase activity [1]: decreased in a dose-dependent manner
anchorage-independent colony formation (HeLa and KYSE30 cells): unable to form colonies
AP-1 luciferase activity [2]: decreased in a dose-dependent manner
percentage of cells in the G1 stage of the cell cycle (CaSki cells): increase
percentage of cells in the S and G2/M stages (CaSki cells): decrease
release of Cytochrome C from the mitochondria into the cytoplasm (Cytochrome C release): release of Cytochrome C from the mitochondria into the cytoplasm, in a dose-dependent manner
IC50 [7]: 12.7 µM
IC50 [9]: 10.4 µM
IC50 [11]: 24 µM
nuclear import of Kpnβ1 cargo protein (percentage of nuclear p65 relative to cytoplasmic p65) [14]: inhibit the nuclear import of Kpnβ1 cargo protein
